Assay results: US11548875B2, “Inhibitor compounds for male contraception” (University of Washington, priority 2018, dated 2023)

Legend:
ALDH1A2 = biological target: T1, ALDH1A2 (Homo sapiens, UniProt O94788); assay: Inhibitor screening using purified enzymes: ALDH1A2 activity, retinoic acid production by HPLC (5 uM initial screen, then IC50); type: biochemical; set-up: histidine-tag (C); made in house; host or cells: bacterial expression (pET28 vector, IPTG induction); details: purified enzyme
T1 sequence (O94788 1-518): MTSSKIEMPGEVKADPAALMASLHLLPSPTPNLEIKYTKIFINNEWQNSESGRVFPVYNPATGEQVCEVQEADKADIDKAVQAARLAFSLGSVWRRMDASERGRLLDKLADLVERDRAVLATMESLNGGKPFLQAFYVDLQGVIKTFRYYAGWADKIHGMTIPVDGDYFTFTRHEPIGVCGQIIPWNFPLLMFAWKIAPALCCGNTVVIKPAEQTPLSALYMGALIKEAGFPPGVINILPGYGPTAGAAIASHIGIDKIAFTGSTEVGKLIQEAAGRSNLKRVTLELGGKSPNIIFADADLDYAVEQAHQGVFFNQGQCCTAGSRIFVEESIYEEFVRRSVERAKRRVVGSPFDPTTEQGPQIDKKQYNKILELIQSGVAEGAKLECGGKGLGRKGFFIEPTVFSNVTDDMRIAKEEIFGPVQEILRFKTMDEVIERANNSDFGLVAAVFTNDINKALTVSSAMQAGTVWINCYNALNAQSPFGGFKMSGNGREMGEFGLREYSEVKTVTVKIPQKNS
Text: (§1) ALDHs were cloned into bacterial expression vector for in vitro enzyme assays and into mammalian expression vectors for cell-based enzyme assays. Human ALDH1A1 cDNA and human ALDH2 cDNA were purchased from OriGene (SC321535) and Open Biosystems (MHS4771-99611182), respectively. and human ALDH1A2 cDNA was cloned from human testis RNA using RT-PCR (Population Division of the Department of Economic and Social Affairs of the United Nations Secretariat. World Population prospects: the 2008 revision. Available at http://www.un.org/esa/population/ (Retrieved Sep. 30, 2011)). For bacterial expression, an open reading frame of ALDH1A1 and ALDH2 were subcloned into the pETite vector (Lucigen) with a 5′ histidine-tag and that of ALDH1A2 into a pET28 vector (Novagen) with a 3′ histidine-tag. Correct frame and sequences were verified through DNA sequencing (UW DNA sequencing facility). ALDHs were induced with 1 mM IPTG and purified using His.Bind resin (Novagen, San Diego, Calif.) and stored in a buffer containing 20 mM Hepes (pH 8), 150 mM KCl and 1 mM EDTA as previously described (Fierce, Y., de Morais Vieira, M., Piantedosi, R., Wyss, A., Blaner, W. S., and Paik, J. (2008) In vitro and in vivo characterization of retinoid synthesis from beta-carotene. Archives of biochemistry and biophysics 472, 126-138).
ALDH1A1 and ALDH1A2 activity was determined as previously reported (Beedle M T, Stevison F, Zhong G, Topping T, Hogarth C, Isoherranen N, Griswold M D. Sources of All-Trans Retinal Oxidation Independent of the Aldehyde Dehydrogenase 1A Isozymes Exist in the Postnatal Testis. Biol Reprod. 2018 Sep. 21. doi: 10.1093/biolre/ioy200). Briefly, purified enzymes were incubated in a buffer containing 10 mM HEPES buffer (pH 8.0), 150 mM potassium chloride and 2 mM EDTA with 2 mM NAD. Retinoic acid production was determined using HPLC as previously reported (Amory J K, Muller C H, Shimshoni A J, Isoherranen N, Paik J, Moreb J S, Amory D W, Evanoff R, Goldstein A S, Griswold M D. Suppression of spermatogenesis by bisdichloroacetyldiamines is mediated by inhibition of testicular retinoic acid biosynthesis. Journal of Andrology 2011; 32(1):111-119). Inhibitors were diluted in DMSO and added to the reactions. […] For initial screening of inhibitors for ALDH1A2, 1 μg ALDH1A2, 5 μM all-trans-retinal and 5 μM inhibitors were incubated for 15 min at 37° C. […] For this purpose, 0.5 μg ALDH1A2 and […] were incubated for 5 minutes at 37° C. with varying concentrations of inhibitors. To determine specificity toward ALDH1A2, the IC50 for […]

ALDH2 = biological target: T2, ALDH2 (Homo sapiens, UniProt P05091); assay: Purified ALDH2 assay with propanal, NADH fluorescence; type: biochemical; details: purified enzyme
T2 construct: histidine-tag (N); made in house; host or cells: bacterial expression (pETite vector, IPTG induction)
T2 sequence (P05091 18-517): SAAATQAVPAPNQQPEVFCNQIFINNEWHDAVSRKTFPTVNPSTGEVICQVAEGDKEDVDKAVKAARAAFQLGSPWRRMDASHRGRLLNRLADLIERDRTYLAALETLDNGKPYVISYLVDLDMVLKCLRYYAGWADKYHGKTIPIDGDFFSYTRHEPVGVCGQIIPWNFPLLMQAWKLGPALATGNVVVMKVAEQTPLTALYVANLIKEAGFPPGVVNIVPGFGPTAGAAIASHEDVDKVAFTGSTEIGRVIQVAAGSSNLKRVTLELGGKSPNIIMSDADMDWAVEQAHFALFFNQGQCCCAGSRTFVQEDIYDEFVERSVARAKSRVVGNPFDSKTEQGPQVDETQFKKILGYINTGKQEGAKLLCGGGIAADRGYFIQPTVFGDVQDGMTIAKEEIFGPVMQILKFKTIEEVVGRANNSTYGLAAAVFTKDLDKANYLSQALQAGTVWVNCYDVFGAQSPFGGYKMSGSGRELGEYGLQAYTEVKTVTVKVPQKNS
Text: as §1, with “126-138). […]” for “126-138).”
For this, 2 μg purified ALDH2, 20 μM propanal and varying concentrations of inhibitors were incubated at room temperature. Enzyme activity was determined by measuring fluorescence of NADH (Ex, 350 nm/Em, 460 nm) using a Victor3 plate reader (PerkinElmer), and initial velocity was calculated from two consecutive readings over 1 minute.

SMILES	IC50 (ALDH1A2) [µM]	IC50 (ALDH2) [µM]
CS(=O)(=O)c1ccc(-c2nn(-c3cccc(F)c3)cc2C(=O)Nc2ccc(C#N)cc2)cc1 [Compound 249, N-(4-Cyanophenyl)-3-[4-(methylsulfonyl)phenyl]-1-(3-fluorophenyl)-1H-pyrazole-4-carboxamide]	0.038	35.9
O=C(c1sccc1Cl)N1CCN(c2ccc([N+](=O)[O-])c(N3CCCC3)c2)CC1 [Compound 324, {4-[4-Nitro-3-(pyrrolidin-1-yl)phenyl]piperazin-1-yl}(3-chlorothiophen-2-yl)methanone]	0.142	5.22
CS(=O)(=O)c1ccc(-c2nn(-c3cccc(F)c3)cc2C(=O)Nc2cccc(C(F)(F)F)c2)cc1 [Compound 250, N-(3-Trifluoromethyphenyl)-3-[4-(methylsulfonyl)phenyl]-1-(3-fluorophenyl)-1H-pyrazole-4-carboxamide]	0.291	85.8
O=C(Nc1cccc(F)c1)c1cn(-c2ccccc2)nc1-c1ccc([N+](=O)[O-])cc1 [Compound 106, N-(3-fluorophenyl)-3-(4-nitrophenyl)-1-phenyl-1H-pyrazole-4-carboxamide]	0.07	146
Nc1cccc(NC(=O)c2cn(-c3ccccc3)nc2-c2ccc([N+](=O)[O-])cc2)c1 [Compound 173, N-(3-Aminophenyl)-3-(4-nitrophenyl)-1-phenyl-1H-pyrazole-4-carboxamide]	0.383	73.7
COC(=O)c1ccc(-c2nn(-c3ccccc3)cc2C=O)cc1 [Cmpd 33]	0.198	0.077
O=C(Nc1cccc(C(F)(F)F)c1)c1cn(-c2ccccc2)nc1-c1ccc([N+](=O)[O-])cc1 [Compound 151, 3-(4-Nitrophenyl)-1-phenyl-N-[3-(trifluoromethyl)phenyl]-1H-pyrazole-4-carboxamide]	0.822	24.6
CC(=O)Oc1ccccc1NC(=O)c1cn(-c2ccccc2)nc1-c1ccc(S(C)(=O)=O)cc1 [Compound 210, N-(2-Acetoxyphenyl)-3-[4-(methylsulfonyl)phenyl]-1-phenyl-1H-pyrazole-4-carboxamide]	0.032	112
CS(=O)(=O)c1ccc(-c2nn(-c3ccccc3)cc2C(=O)Nc2ccc(F)c(F)c2)cc1 [Compound 207, 3-(4-(Methylsulfonyl)phenyl)-N-(3,4-difluorophenyl)-1-phenyl-1H-pyrazole-4-carboxamide]	0.01	10.3
CS(=O)(=O)c1ccc(-c2nn(-c3cccc(Cl)c3)cc2C(=O)Nc2cccc(F)c2)cc1 [Compound 239, N-(3-Fluorophenyl)-3-[4-(methylsulfonyl)phenyl]-1-(3-chloropheny)-1H-pyrazole-4-carboxamide]	0.271	9.6
O=C(Nc1ccc(O)cc1)c1cn(-c2ccccc2)nc1-c1ccc([N+](=O)[O-])cc1 [Compound 167, N-(4-Hydroxyphenyl)-3-(4-nitrophenyl)-1-phenyl-1H-pyrazole-4-carboxamide]	0.397	16.9
O=C(Nc1ccccc1C(F)(F)F)c1cn(-c2ccccc2)nc1-c1ccc([N+](=O)[O-])cc1 [Compound 150, 3-(4-Nitrophenyl)-1-phenyl-N-[2-(trifluoromethyl)phenyl]-1H-pyrazole-4-carboxamide]	0.17	13
CS(=O)(=O)c1ccc(-c2nn(-c3ccccc3)cc2C(=O)Nc2cccc(C(F)(F)F)c2)cc1 [Compound 208, 3-(4-(Methylsulfonyl)phenyl)-N-(3-trifluoromethylphenyl)-1-phenyl-1H-pyrazole-4-carboxamide]	0.01	145
COC(=O)c1cn(-c2ccccc2)nc1-c1ccc([N+](=O)[O-])cc1 [Compound 229, Methyl 3-(4-nitrophenyl)-1-phenyl-1H-pyrazole-4-carboxylate]	0.217	15.2
O=C(Nc1ccccc1O)c1cn(-c2ccccc2)nc1-c1ccc([N+](=O)[O-])cc1 [Compound 165, N-(2-Hydroxyphenyl)-3-(4-nitrophenyl)-1-phenyl-1H-pyrazole-4-carboxamide]	0.211	23.3
O=C(c1ccc(O)s1)N1CCN(c2ccc([N+](=O)[O-])c(N3CCCC3)c2)CC1 [Compound 335]	0.342	2.07
COc1cccc(NC(=O)c2cn(-c3ccccc3)nc2-c2ccc([N+](=O)[O-])cc2)c1 [Compound 103, N-(3-Methoxyphenyl)-3-(4-nitrophenyl)-1-phenyl-1H-pyrazole-4-carboxamide]	0.62	313
CS(=O)(=O)c1ccc(-c2nn(-c3cccc(F)c3)cc2C(=O)Nc2ccccc2O)cc1 [Compound 243, N-(2-Hydroxyphenyl)-3-[4-(methylsulfonyl)phenyl]-1-(3-fluorophenyl)-1H-pyrazole-4-carboxamide]	0.076	62
CS(=O)(=O)c1ccc(-c2nn(-c3ccccc3F)cc2C(=O)Nc2ccccc2O)cc1 [Compound 238, N-(2-Hydroxphenyl)-3-[4-(methylsulfonyl)phenyl]-1-(2-fluoropheny)-1H-pyrazole-4-carboxamide]		40.9
